The text below walks through data of patent US20230138400A1, “METHODS AND PHARMACEUTICAL COMPOSITIONS FOR REPROGRAMING IMMUNE ENVIRONMENT IN A SUBJECT IN NEED THEREOF” (INSERM (INSTITUT NATIONAL DE LA SANTE ET DE LA RECHERCHE …, priority 2016, published 2023).

The structures appear in SMILES notation.

This experiment has as its system SKMEL-28 cells. The experiment in a line: Exosome production of SKMEL-28 cells (shCTRL or shLXRbeta) treated with DDA. In kind it is cell-based, human. Conditions: for production of exosomes: 2.5 μM DDA for 24 h. On the procedure:
Obtention of LXRβ knock-down cells. SKMEL28 cells ([…]) or E0771 (3×10^6) were transfected with the Neon Transfection System (Invitrogen) with 1 μg or 3 μg of small hairpin RNA targeting human LXRβ or mouse LXRβ (two different shRNA were used) or with 1 μg control ShRNA. Transfected cells were selected in multiwell plates (10 000 cells/well) with puromycin ranging from 1-10 μg/ml. Two clones transfected with two different shRNA against LXRβ with LXRβ expression knocked-down by 70% and 80% (for SKMEL28) and by 90% and 95% (for E0771) and two control clones were selected.
Exosome quantification. 1) Protein content in exosomes was quantified by the spectrophotometric method of Lowry in presence of 0.1% w/v sodium dodecyl […]. 2) Exosomes were also quantified by flow cytometry following labeling with the fluorescent lipid Bodipy-ceramide (Invitrogen-Molecular Probes) for 1 hour at 37° C. Excess of Bodipy-ceramide was removed by filtration and washing through the 1000 kDa Vivaspin filter and exosomes were quantitated by FACS. 3) Numeration of exosomes vesicles was performed either by nano tracking analysis (Nanosight equipment, Malvern, France) or by TRPS (tunable resistive pulse sensing) technology (qNano equipment, Izon, UK).

`CC(C)CCCC(C)[C@H]1CCC2C3C[C@@H](NCCc4cnc[nH]4)[C@@]4(O)C[C@@H](O)CC[C@]4(C)C3CC[C@@]21C` (stereo partly drawn) [DDA, 5a-hydroxy-6b-[2-(1H-imidazol-4-yl)ethylamino]cholestan-3b-ol]: the production of exosomes entry runs as follows: (SKMEL-28-shCTRL cells) “about 2 fold”; (SKMEL-28-shLXRbeta cells) “does not stimulate”. Also, where the note is “SKMEL-28 cells, data not shown”, the “exosome secretion from human melanoma cells” value is reported as “stimulates exosome secretion”.
